Measured values taken from PMC4514850, “A Novel TGR5 Activator WB403 Promotes GLP-1 Secretion and Preserves Pancreatic β-Cells in Type 2 Diabetic Mice” (PLoS ONE, 2015).
pEC50: −log10 of the molar value. Each block holds one compound with its values, some of them ahead of it.

Assays:
TGR5 = conditions: moderate bile acids; ref [22], [34]; cited from earlier work
db/db mice = assay: pancreas histology (H&E, IHC) of treated db/db mice; type: in vivo
Protocol: Analysis of islet cell mass was performed using conventional methods. In brief, mice were sacrificed by cervical dislocation. The body part of the pancreas was rapidly excised, fixed in 10% neutral buffered formalin solution for 24 h and embedded in paraffin, then sectioned at 5 μm ready for hematoxylin and eosin (H&E) staining and immunohistochemistry staining (IHC). The latter was carried out using rabbit anti-insulin polyclonal antibody (Cat. no. 4590, 1:600) and rabbit anti-glucagon monoclonal antibody (Cat. no. 8233s, 1:200) from Cell Signaling Technology.
Fig 5 WB403 preserved the mass of pancreatic β-cells and normal distribution of α and β-cells. (A) H&E staining of pancreas from db/db mice, and statistical result. Islets were sized by the Image J analysis software on alternated pancreatic sections spaced each by 100 μm. (B) Immunohistochemical analysis of pancreatic sections by anti-insulin antibody or anti-glucagon antibody. (C) H&E staining of pancreas from HFD/STZ mice, and statistical result. Results are representative islets from each group. 1–5 in the column graph on the right represents normal mice, diabetic mice treated with vehicle, WB403 50 mg/kg, WB403 100 mg/kg, sitagliptin 100 mg/kg respectively (n = 5). *p<0.05, **p<0.01, ***p<0.001 vs. diabetes-vehicle group.

gallbladders of mice = assay: gallbladder filling in normal mice; type: in vivo; conditions: 200 mg/kg ip, normal mice fasted overnight, gallbladders removed 30 min later, n = 10
Text: (§1) Fig 1 WB403 activated TGR5 and promoted active GLP-1 secretion. (A) WB403 stimulated hTGR5 in CRE-luciferase report system at the concentration range of 1–20 μmol/l. (B) WB403 stimulated hTGR5 specific cAMP accumulation at the concentration range of 1–50 μmol/l. n = 3. **p<0.01, ***p<0.001 vs. DMSO (+TGR5) group. (C) The hTGR5 targeted CRE-luciferase activity of WB403 and ZY403. […] (D) Effect of WB403 and ZY403 on gallbladders of mice. Normal mice were fasted overnight and treated with compounds (200 mg/kg) or vehicle (DMSO) by ip injection. Gallbladders (GB) were removed 30 min later and volumes measured then normalized to body weight (B.W.). n = 10. **p<0.01 vs. vehicle group. (E) Structure of WB403 and ZY403. WB403 promoted GLP-1 secretion in NCI-H716 cells (F), primary enterocytes (G), and MIN6 cells (H). n = 3. *p<0.05, **p<0.01, ***p<0.001 vs. vehicle group. (I) WB403 promoted GLP-1 in ICR mice. n = 5. **p<0.01 vs. vehicle group. Values represent mean ± SEM.

hTGR5 = molecular target: T1, hTGR5 (Homo sapiens, UniProt Q8TDU6); assay: human TGR5 CRE-luciferase assay in co-transfected 293T cells; type: cell-based
T1 construct: expressed in transfected cells; host or cells: 293T cells, transient transfection with pTGR5 (gift from Prof. Johan Auwerx)
T1 sequence (Q8TDU6 1-330): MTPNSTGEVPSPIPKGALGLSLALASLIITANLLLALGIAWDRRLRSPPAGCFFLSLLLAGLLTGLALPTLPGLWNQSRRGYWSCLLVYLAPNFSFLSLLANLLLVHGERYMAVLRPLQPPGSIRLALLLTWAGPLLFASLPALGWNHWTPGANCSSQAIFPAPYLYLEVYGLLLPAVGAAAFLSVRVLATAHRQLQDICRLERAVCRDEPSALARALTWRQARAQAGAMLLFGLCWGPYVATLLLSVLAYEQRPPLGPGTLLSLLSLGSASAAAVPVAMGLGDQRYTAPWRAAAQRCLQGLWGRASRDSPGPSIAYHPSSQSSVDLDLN
Protocol: For human TGR5 luciferase (luc) assay, 293T cells were co-transfected with pCRE-luc, pTGR5 (kind gift from Prof. Johan Auwerx, Ecole Polytechnique Fédérale de Lausanne, Lausanne, Switzerland) and pRenilla (Promega, USA). WB403 was added 5 h later. Cells were harvested after 16 h and subjected to luciferase analysis on Lumistar Optima chemiluminescent detector (BMG labtech, Germany). For cAMP testing, 293T cells transiently transfected with pTGR5 or pGPR119 (GeneCopoeia, USA) were washed by FBS-free DMEM, and stimulated with WB403 in FBS-free DMEM containing 3-isobutyl-1-methyl-xanthine (IBMX, Sigma). Cell lysates were collected 30 min later and used for cAMP ELISA assay. FLIPR Calcium 5 assay kit (Molecular Devices, USA) was used for calcium mobilization assay. 293-GPR40 stable cells (kindly provided by Prof. Naiming Zhou of Zhejiang University, Hanzhou, China) or 293 cells transient transfected with GPR120 were seeded at 50,000 cells per well in black-walled clear-bottomed 96-well plates (Costar). An equal volume of loading buffer containing Fluo 4-AM was added the following day and cells were incubated for 1 h before stimulated with compounds. Increase of the intracellular Ca^2+ concentration was monitored by Flexstation 3 system (Molecular Devices, USA).
as §1

NCI-H716 cells = assay: active GLP-1 secretion in NCI-H716 cells; type: cell-based, human; conditions: 10 μmol/l, 30 min
Protocol: Endocrine differentiation was induced by seeding NCI-H716 cells in plates coated with Matrigel (Becton Dickinson). Cells were washed with RPMI-1640 medium without FBS and incubated in the same medium containing indicated compounds at 10 μmol/l. The condition medium was collected after 30 min. GLP-1 secretion in MIN6 or primary enterocytes was conducted similarly. To isolate primary enterocytes, ileum or colon was cut into 2 cm length, rinsed by PBS (pH7.2∼7.4) before dispersed in 10 mmol/l EDTA/PBS (pH7.4) for 15 min at room temperature, followed by pipetting up and down. Enterocytes were collected by filtration through a 70 μm cell strainer. To study the effect of WB403 on GLP-1 secretion in vivo, mice in group of three were fasted overnight and orally received 0, 50, 100 mg/kg of WB403 dispersed in 0.5% CMC with a DPP-4 inhibitor (5 mg/kg). There were 5 animals in each group. 2 g/kg glucose was administrated 30 min later and blood was collected 10 min after glucose challenge.
The GLP-1 (active) ELISA kit was purchased from Millipore, and insulin ELISA kit was from Mercodia. For quantitative determination of cAMP, a competitive enzyme immunoassay kit from R&D system was used. All immunoassays were performed according to manufacturers’ instructions.

Structure (SMILES): C[C@H](CCC(=O)O)[C@H]1CC[C@H]2[C@@H]3[C@H](O)C[C@@H]4C[C@H](O)CC[C@]4(C)[C@H]3C[C@H](O)[C@]12C [CA, cholicacid]
pEC50 (TGR5): 5.11

Structure (SMILES): N[C@@H](CC(=O)N1CCn2c(nnc2C(F)(F)F)C1)Cc1cc(F)c(F)cc1F [sitagliptin, sitagliptin phosphate, reference compound]
islet area vs vehicle (db/db mice; H&E, after 4-week treatment): bigger islet area as compared to the vehicle mice, though no significant difference was found | α-cell and β-cell distribution in islets (db/db mice; IHC anti-insulin / anti-glucagon): significantly reduced α-cell in the islet core area and restored the normal cell distribution pattern

gallbladder filling (gallbladders of mice): caused gallbladder filling | pEC50 (hTGR5; CRE-luciferase, 293T cells, Fig 1C, read-out: EC50, hTGR5 targeted CRE-luciferase activity): 5.89 | TGR5 luciferase activity in primary screen (fold increase compared to DMSO control) (hTGR5; screen of 100 compounds, S1 Fig): highest luciferase activity
Structure (SMILES): CCc1cc(-c2nc(CCOCc3ccc(Br)cc3)cs2)ccn1 [ZY403]
GLP-1 stimulation in NCI-H716 cells (NCI-H716 cells): did not show a strong stimulation for GLP-1 activity
